In the NIST ThermoML archive (doi:10.1016/j.jct.2015.11.012):
± gives the expanded uncertainty stated by the source.

Experiment: xn = mol fraction of the nth substance listed
Settings: 100 kPa, Liquid; for viscosity: Capillary tube (Ostwald / Ubbelohde) method; for speed of sound: Frequency=2 MHz, Linear variable-path acoustic interferometer; for mass density: Vibrating tube method

Nc1cccc(Cl)c1 [3-chlorobenzenamine] + NCCO
Settings	mass density [kg/m3]	speed of sound [m/s]	viscosity [mPa·s]
303.15 K, x1 = 0.0857	1037.07 ± 4	1689 ± 10	13.56 ± 1
303.15 K, x1 = 0.1749	1063.03 ± 4	1674.4 ± 10	12.66 ± 1
303.15 K, x1 = 0.2679	1086.86 ± 4	1658.9 ± 10	11.72 ± 1
303.15 K, x1 = 0.3619	1108.19 ± 4	1642.4 ± 10	10.77 ± 1
303.15 K, x1 = 0.4597	1127.88 ± 4	1624.3 ± 9.9	9.773 ± 1
303.15 K, x1 = 0.5607	1145.96 ± 4	1604.9 ± 9.8	8.747 ± 1
303.15 K, x1 = 0.6649	1162.61 ± 4	1584.1 ± 9.7	7.685 ± 1
303.15 K, x1 = 0.7726	1177.97 ± 4	1562.3 ± 9.5	6.586 ± 1
303.15 K, x1 = 0.8835	1192.12 ± 4	1540.1 ± 9.4	5.451 ± 1
303.15 K, x1 = 1	1205.32 ± 4	1517.5 ± 9.3	4.255 ± 1
308.15 K, x1 = 0.0857	1032.99 ± 4	1673.4 ± 10	11.04 ± 1
308.15 K, x1 = 0.1749	1058.89 ± 4	1659.2 ± 10	10.35 ± 1
308.15 K, x1 = 0.2679	1082.69 ± 4	1643.1 ± 10	9.621 ± 1
308.15 K, x1 = 0.3619	1103.96 ± 4	1626 ± 9.9	8.885 ± 1
308.15 K, x1 = 0.4597	1123.59 ± 4	1607.5 ± 9.8	8.117 ± 1
308.15 K, x1 = 0.5607	1141.65 ± 4	1588.1 ± 9.7	7.322 ± 1
308.15 K, x1 = 0.6649	1158.22 ± 4	1568.1 ± 9.6	6.5 ± 1
308.15 K, x1 = 0.7726	1173.53 ± 4	1547.2 ± 9.4	5.649 ± 1
308.15 K, x1 = 0.8835	1187.62 ± 4	1525.2 ± 9.3	4.77 ± 1
308.15 K, x1 = 1	1200.75 ± 4	1501.2 ± 9.2	3.842 ± 1
313.15 K, x1 = 0.0857	1029.02 ± 4	1658.8 ± 10	9.049 ± 1
313.15 K, x1 = 0.1749	1054.84 ± 4	1643.8 ± 10	8.509 ± 1
313.15 K, x1 = 0.2679	1078.52 ± 4	1626.5 ± 9.9	7.944 ± 1
313.15 K, x1 = 0.3619	1099.7 ± 4	1608.2 ± 9.8	7.37 ± 1
313.15 K, x1 = 0.4597	1119.25 ± 4	1588.8 ± 9.7	6.771 ± 1
313.15 K, x1 = 0.5607	1137.2 ± 4	1568.9 ± 9.6	6.151 ± 1
313.15 K, x1 = 0.6649	1153.72 ± 4	1548.6 ± 9.4	5.51 ± 1
313.15 K, x1 = 0.7726	1168.97 ± 4	1527.7 ± 9.3	4.846 ± 1
313.15 K, x1 = 0.8835	1182.98 ± 4	1505.5 ± 9.2	4.157 ± 1
313.15 K, x1 = 1	1196.02 ± 4	1480.3 ± 9	3.43 ± 1
318.15 K, x1 = 0.0857	1024.4 ± 4	1642 ± 10	7.182 ± 1
318.15 K, x1 = 0.1749	1050.2 ± 4	1627.5 ± 9.9	6.785 ± 1
318.15 K, x1 = 0.2679	1073.86 ± 4	1610.2 ± 9.8	6.368 ± 1
318.15 K, x1 = 0.3619	1095.02 ± 4	1591.7 ± 9.7	5.944 ± 1
318.15 K, x1 = 0.4597	1114.53 ± 4	1572.2 ± 9.6	5.501 ± 1
318.15 K, x1 = 0.5607	1132.47 ± 4	1552.5 ± 9.5	5.043 ± 1
318.15 K, x1 = 0.6649	1149 ± 4	1532.6 ± 9.3	4.568 ± 1
318.15 K, x1 = 0.7726	1164.23 ± 4	1512.3 ± 9.2	4.075 ± 1
318.15 K, x1 = 0.8835	1178.23 ± 4	1490.5 ± 9.1	3.565 ± 1
318.15 K, x1 = 1	1191.25 ± 4	1464.8 ± 8.9	3.022 ± 1
